IC50 data for 17 compounds are collected here from patent publication US20260334439A1, “BCAT2 INHIBITORS” (Agios Pharmaceuticals, Inc., priority 2023, published 2026).

The structures appear in SMILES notation.

Experiment [1] concerns the target T1, BCAT2 (Homo sapiens, UniProt O15382).
T1 sequence (O15382 28-392): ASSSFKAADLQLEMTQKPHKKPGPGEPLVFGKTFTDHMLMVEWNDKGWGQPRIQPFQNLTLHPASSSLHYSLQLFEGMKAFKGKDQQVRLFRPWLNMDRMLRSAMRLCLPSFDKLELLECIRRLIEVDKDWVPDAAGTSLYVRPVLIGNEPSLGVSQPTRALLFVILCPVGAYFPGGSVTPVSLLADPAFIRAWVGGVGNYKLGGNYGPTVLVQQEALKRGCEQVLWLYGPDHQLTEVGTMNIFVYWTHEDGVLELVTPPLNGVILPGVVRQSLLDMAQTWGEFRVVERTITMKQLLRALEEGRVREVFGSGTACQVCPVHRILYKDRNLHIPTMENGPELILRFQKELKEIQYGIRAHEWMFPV
Nature of the experiment: BCAT2 in vitro enzyme inhibition assay (hBCAT2, glutamate dehydrogenase/diaphorase/resazurin coupled fluorescence read). It counts as biochemical. The conditions noted are these: hBCAT2, 1 h preincubation at 25° C., one hour reaction; average where tested multiple times. In outline: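 hBCAT2 (0.33 μg/mL in mix) preincubated 1 h at 25 °C with compound (top 100 μM, 3-fold, 10 points) in Tris pH 8.0/NaCl/BSA; substrate mix added (L-leucine, α-ketoglutarate, GDH, NAD, diaphorase, resazurin), quenched with SDS after 1 h, fluorescence Ex 540/Em 590; duplicates, repeat tests averaged.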

For experiment [2], the target named is T1, BCAT2. The experiment can be described thus: BCAT2 cell inhibition using engineered A549 cells (MUT KO, BCAT1 KO; 13C6-KMV formation by LC-MS/MS). It counts as cell-based. Also noted: expressed endogenous BCAT2; endogenous in cells; host or cells: A549 cells, MUT knockout and BCAT1 knockout. The text has this:
Endogenous Methylmalonyl-CoA Mutase (MUT) and Branched Chain Aminotransferase 1 (BCAT1) in A549 cells was knocked out by CRISPR/CAS9 using the targeting system from TransOMIC Technologies. The following guide sequence was cloned into pCLIP-ALL-EFS-Blast vector to target human MUT: […] (SEQ ID NO: 35). The following guide sequence was cloned into pCLIP-ALL-EFS-Puro vector to target human BCAT1: […] (SEQ ID NO: 36). The resulting plasmids were co-transfected into 293T cells with VSV-G, P-PEX, and Fugene-6. Lentivirus was harvested and A549 cells were first transduced with lentivirus targeting MUT and polybrene. After genetic selection with blasticidin clonal selection was performed and validated via western blot analysis to confirm MUT was no longer expressed. These MUT KO cells were then transduced with lentivirus targeting BCAT1 and polybrene. After selection with puromycin clonal selection was performed and clones were validated via western blot analysis to confirm BCAT1 was no longer expressed in these cells. The result was an engineered A549 cell line that expressed endogenous BCAT2.
For KMV cell assays, on day 1, 25,000 cells/100 μL EMEM (10% FBS) were seeded in each well of a 96-well plate. On day 2, medium was replaced with 50 μL fresh EMEM (10% dialyzed FBS) containing 2× the assay concentration of experimental compound. After 15 minutes, 50 μL of 800 uM ^15N,^13C6-Isoleucine in EMEM (10% dialyzed FBS) was added to each well and incubated for 24 hours. On day 3, 50 μL of media from each well was collected and transferred to another 96-well plate for ^13C6-3-Methyl-2-Oxopentanoic Acid (KMV) analysis via LC-MS/MS. In the remaining assay wells 50 μL of Promega Glo CTG reagent was added and luminescence was measured as a cell viability readout.
For LC-MS/MS analysis 5 μL of cell assay media from each well was transferred to a 96-well plate and 45 μL of ACN:0.1% NaOH (50:50, v/v)^+0.20 nM d8-KMV was added and mixed on a shaker. 15 μL was transferred to a new 96-well plate and 15 μL of 10 mg/mL PFBHA solution was added and mixed on the shaker. The reaction was placed on ice for 30 minutes and quenched with 10 μL of ACN: Acetone (50:50, v/v) on a shaker. The resulting mixture was diluted with 100 μL of ACN:0.1% NaOH (50:50, v/v) on a shaker. 10 μL of sample were injected on the Shimadzu 20AD LC-MS/MS to quantify ^13C6-KMV.
Where a compound was tested multiple times, the average value of the tests is reported.

By IC50 is commonly meant the concentration at which inhibition is half-maximal. With `CN1C[C@H](NC(=O)c2cc(F)ccn2)C[C@H](n2c(-c3ccccc3F)nc3cnc(-c4nc[nH]n4)cc32)C1` [Example 134, 4-fluoro-N-((3R,5S)-5-(2-(2-fluorophenyl)-6-(1H-1,2,4-triazol-3-yl)-1H-imidazo[4,5-c]pyridin-1-yl)-1-methylpiperidin-3-yl)picolinamide], the IC50 in experiment [1] was under 100 nM; in experiment [2], 100 to 500 nM.
Take `COCCOc1ccc(F)cc1C(=O)N[C@H]1CCC[C@@H](n2c(-c3ccccc3F)nc3cnc(-c4nc[nH]n4)cc32)C1` [Example 59, 5-fluoro-N-((1S,3R)-3-(2-(2-fluorophenyl)-6-(1H-1,2,4-triazol-3-yl)-1H-imidazo[4,5-c]pyridin-1-yl)cyclohexyl)-2-(2-methoxyethoxy)benzamide]: the IC50 in experiment [1] and in experiment [2] was under 100 nM each time.
In the case of `CO[C@H]1C[C@H](NC(=O)c2cc(Cl)ccc2OCCO)C[C@H](n2c(-c3ccccc3F)nc3cnc(-c4nc[nH]n4)cc32)C1` [Example 119, 5-chloro-N-((1R,3S,5S)-3-(2-(2-fluorophenyl)-6-(1H-1,2,4-triazol-3-yl)-1H-imidazo[4,5-c]pyridin-1-yl)-5-methoxycyclohexyl)-2-(2-hydroxyethoxy)benzamide], the IC50 in experiment [1] and in experiment [2] was under 100 nM each time.
As for `O=C1c2cc(Cl)ccc2CN1[C@H]1CCC[C@@H](n2c(-c3ccccc3F)nc3cnc(-c4nc[nH]n4)cc32)C1` [Example 168, 6-chloro-2-((1S,3R)-3-(2-(2-fluorophenyl)-6-(1H-1,2,4-triazol-3-yl)-1H-imidazo[4,5-c]pyridin-1-yl)cyclohexyl)isoindolin-1-one], the IC50 in experiment [1] and in experiment [2] was under 100 nM each time.
As for `O=C(N[C@H]1CCC[C@@H](n2c(-c3ccccc3F)nc3cnc(-c4nc[nH]n4)cc32)C1)c1cc(Cl)ccn1` [Example 7, 4-chloro-N-((1S,3R)-3-(2-(2-fluorophenyl)-6-(1H-1,2,4-triazol-3-yl)-1H-imidazo[4,5-c]pyridin-1-yl)cyclohexyl)picolinamide], the IC50 in experiment [1] and in experiment [2] was under 100 nM throughout.
Consider `O=C(N[C@H]1CCC[C@@H](n2c(-c3ccccc3F)nc3cnc(-c4nc[nH]n4)cc32)C1)c1cc(F)ccn1` [Example 14, 4-fluoro-N-((1S,3R)-3-(2-(2-fluorophenyl)-6-(1H-1,2,4-triazol-3-yl)-1H-imidazo[4,5-c]pyridin-1-yl)cyclohexyl)picolinamide], for which the IC50 in experiment [1] and in experiment [2] was under 100 nM each time.
With `O=C1c2cc(Cl)ccc2OCN1[C@H]1CCC[C@@H](n2c(-c3ccccc3F)nc3cnc(-c4nc[nH]n4)cc32)[C@@H]1O` [Example 213, 6-chloro-3-((1S,2S,3R)-3-(2-(2-fluorophenyl)-6-(1H-1,2,4-triazol-3-yl)-1H-imidazo[4,5-c]pyridin-1-yl)-2-hydroxycyclohexyl)-2,3-dihydro-4H-benzo[e][1,3]oxazin-4-one], the IC50 in experiment [1] and in experiment [2] was under 100 nM in each case.
Consider `CCOc1ncc(Cl)cc1C(=O)N[C@H]1CCC[C@@H](n2c(-c3ccccc3F)nc3cnc(-c4nc[nH]n4)cc32)C1` [Example 23, 5-chloro-2-ethoxy-N-((1S,3R)-3-(2-(2-fluorophenyl)-6-(1H-1,2,4-triazol-3-yl)-1H-imidazo[4,5-c]pyridin-1-yl)cyclohexyl)nicotinamide], for which the IC50 in experiment [1] and in experiment [2] was under 100 nM in each case.
On to `O=C(N[C@H]1CCC[C@@H](n2c(-c3ccccc3F)nc3cnc(-c4nc[nH]n4)cc32)C1)c1cc(Cl)ccc1OC1CC1` [Example 29, 5-chloro-2-cyclopropoxy-N-((1S,3R)-3-(2-(2-fluorophenyl)-6-(1H-1,2,4-triazol-3-yl)-1H-imidazo[4,5-c]pyridin-1-yl)cyclohexyl)benzamide], for which the IC50 in experiment [1] and in experiment [2] was under 100 nM each time.
Consider `CC(C)Cc1nc2ccc(-c3ncccn3)cc2n1[C@@H]1CCC[C@H](NC(=O)c2cc(Cl)ccn2)[C@H]1O` [Example 219, 4-chloro-N-((1S,2R,3R)-2-hydroxy-3-(2-isobutyl-6-(pyrim-idin-2-yl)-1H-benzo[d]imidazol-1-yl)cyclohexyl)picolinamide], for which the figures for the IC50 in experiment [1] and in experiment [2] were under 100 nM and 100 to 500 nM, respectively.
For `O=C(N[C@H]1CCC[C@@H](n2c(-c3ccccc3F)nc3ccc(-c4nc[nH]n4)c(F)c32)C1)c1cc(Cl)ccn1` [Example 230, 4-chloro-N-((1S,3R)-3-(7-fluoro-2-(2-fluorophenyl)-6-(1H-1,2,4-triazol-3-yl)-1H-benzo[d]imidazol-1-yl)cyclohexyl)picolinamide] the same measures were under 100 nM and under 100 nM.
For `CO[C@H]1C[C@H](N2Cc3ccc(F)cc3C2=O)C[C@H](n2c(-c3ccccc3OCCO)nc3ccc(-c4ncco4)cc32)C1` [Example 241, 6-fluoro-2-((1R,3S,5R)-3-(2-(2-(2-hydroxyethoxy)phenyl)-6-(oxazol-2-yl)-1H-benzo[d]imid-azol-1-yl)-5-methoxycyclohex-yl)isoindolin-1-one] the same measures were under 100 nM and 100 to 500 nM.
For `COc1ccc(Cl)cc1C(=O)N[C@H]1CCC[C@@H](n2c(-c3ccccc3F)nc3cnc(-c4nc[nH]n4)cc32)C1` [Example 1, 5-chloro-N-((1S,3R)-3-(2-(2-fluorophenyl)-6-(1H-1,2,4-triazol-3-yl)-1H-imidazo[4,5-c]pyridin-1-yl)cyclohexyl)-2-methoxybenzamide] the same measures were under 100 nM and under 100 nM.
Consider `O=C(N[C@H]1CCC[C@@H](n2c(-c3ncccc3F)nc3cnc(-c4nc[nH]n4)cc32)C1)c1cc(F)ccn1` [Example 16, 4-fluoro-N-((1S,3R)-3-(2-(3-fluoropyridin-2-yl)-6-(1H-1,2,4-triazol-3-yl)-1H-imidazo[4,5-c]pyridin-1-yl)cyclohexyl)picolinamide], for which the IC50 in experiment [1] was under 100 nM; in experiment [2], 100 to 500 nM.
For `COc1ccc(Cl)cc1C(=O)N[C@H]1CCCC[C@@H](n2c(-c3ccccc3F)nc3cnc(-c4nc[nH]n4)cc32)[C@@H]1O` [Example 105, 5-chloro-N-((1S,2R,3R)-3-(2-(2-fluorophenyl)-6-(1H-1,2,4-triazol-3-yl)-1H-imidazo[4,5-c]pyridin-1-yl)-2-hydroxycycloheptyl)-2-methoxybenzamide] the same measures were under 100 nM and under 100 nM.
For `CO[C@H]1C[C@H](N2Cc3ccc(F)cc3C2=O)C[C@H](n2c(-c3ccccc3OCCO)nc3ccc(-c4ncccn4)cc32)C1` [Example 194, 6-fluoro-2-((1R,3S,5R)-3-(2-(2-(2-hydroxyethoxy)phenyl)-6-(pyrimidin-2-yl)-1H-benzo[d]imidazol-1-yl)-5-methoxycyclohexyl)isoindolin-1-one] the same measures were under 100 nM and under 100 nM.
For `CN1C[C@H](N2Cc3ccc(F)cc3C2=O)C[C@H](n2c(-c3ccccc3OCCO)nc3ccc(-c4ncccn4)cc32)C1` [Example 243, 6-fluoro-2-((3R,5S)-5-(2-(2-(2-hydroxyethoxy)phenyl)-6-(pyrimidin-2-yl)-1H-benzo[d]imidazol-1-yl)-1-methylpiper-idin-3-yl)isoindolin-1-one] the same measures were under 100 nM and 100 to 500 nM.
